Measurements published in ChEMBL document CHEMBL1148869, “Synthesis and SAR studies of potent imidazopyridine anticoccidial agents” (Bioorg Med Chem Lett, 2007).

Assays:
[1] = tested on: Eimeria acervulina; assay: Anticoccidial activity against Eimeria acervulina infected Chick assessed as reduction in oocyst production at 25 ppm after 7 days; assay type: functional; parameters: scale not given: the % may be the effect or the level left
[2] = tested on: Eimeria tenella; assay: Anticoccidial activity against Eimeria tenella infected Chick assessed as reduction in oocyst production at 25ppm after 7 days; assay type: functional; parameters: scale not given: the % may be the effect or the level left
[3] = target: cGMP-dependent protein kinase (Eimeria tenella, UniProt Q8MMZ8); assay: Inhibition of Et-PKG
Sequence of cGMP-dependent protein kinase (Q8MMZ8 whole entry): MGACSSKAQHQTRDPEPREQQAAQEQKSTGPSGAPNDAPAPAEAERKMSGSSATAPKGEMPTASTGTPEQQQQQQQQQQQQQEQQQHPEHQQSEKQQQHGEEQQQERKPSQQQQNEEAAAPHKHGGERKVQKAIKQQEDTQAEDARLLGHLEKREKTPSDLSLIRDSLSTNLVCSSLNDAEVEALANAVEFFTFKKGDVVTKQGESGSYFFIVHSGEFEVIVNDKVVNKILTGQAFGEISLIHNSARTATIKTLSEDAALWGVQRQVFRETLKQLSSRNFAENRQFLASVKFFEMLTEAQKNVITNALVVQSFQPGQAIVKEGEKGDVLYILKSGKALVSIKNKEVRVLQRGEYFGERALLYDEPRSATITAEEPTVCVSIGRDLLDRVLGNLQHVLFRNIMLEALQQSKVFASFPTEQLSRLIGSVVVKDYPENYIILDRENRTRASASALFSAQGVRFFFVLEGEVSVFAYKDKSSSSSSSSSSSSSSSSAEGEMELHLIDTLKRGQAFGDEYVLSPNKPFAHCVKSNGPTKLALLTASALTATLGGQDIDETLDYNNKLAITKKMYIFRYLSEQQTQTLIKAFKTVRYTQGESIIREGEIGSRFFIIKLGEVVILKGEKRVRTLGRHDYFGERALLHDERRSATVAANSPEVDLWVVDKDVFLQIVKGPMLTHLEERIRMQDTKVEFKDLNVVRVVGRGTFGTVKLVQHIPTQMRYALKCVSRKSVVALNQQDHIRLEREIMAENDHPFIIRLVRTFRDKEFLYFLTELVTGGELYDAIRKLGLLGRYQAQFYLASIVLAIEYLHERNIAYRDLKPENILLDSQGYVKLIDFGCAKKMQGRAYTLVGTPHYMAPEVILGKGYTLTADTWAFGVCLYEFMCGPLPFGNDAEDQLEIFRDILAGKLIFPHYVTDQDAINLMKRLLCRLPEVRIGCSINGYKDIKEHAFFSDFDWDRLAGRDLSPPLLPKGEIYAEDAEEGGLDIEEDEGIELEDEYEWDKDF

[4] = tested on: Eimeria tenella; assay: Anticoccidial activity against Eimeria tenella infected Chick assessed as reduction in oocyst production at 12.5 ppm after 7 days; assay type: functional; parameters: scale not given: the % may be the effect or the level left
[5] = tested on: Eimeria acervulina; assay: Anticoccidial activity against Eimeria acervulina infected Chick assessed as reduction in oocyst production at 12.5 ppm after 7 days; assay type: functional; parameters: scale not given: the % may be the effect or the level left
[6] = tested on: Eimeria acervulina; assay: Anticoccidial activity against Eimeria acervulina infected Chick assessed as reduction in oocyst production at 50 ppm after 7 days; assay type: functional; parameters: scale not given: the % may be the effect or the level left
[7] = tested on: Eimeria tenella; assay: Anticoccidial activity against Eimeria tenella infected Chick assessed as reduction in oocyst production at 50 ppm after 7 days; assay type: functional; parameters: scale not given: the % may be the effect or the level left

SMILES	Activity [1] [%]	Activity [2] [%]	IC50 [3] [nM]	Activity [4] [%]	Activity [5] [%]	Activity [6] [%]	Activity [7] [%]
C[C@H](Nc1nccc(-c2c(-c3ccc(F)cc3)nc3cc(CN(C)CCNS(C)(=O)=O)ccn23)n1)c1ccccc1	<50	>80	0.15	–	–	–	–
CN(C)Cc1ccn2c(-c3ccnc(Nc4ccccc4)n3)c(-c3ccc(F)cc3)nc2c1	–	–	0.06	>80	<50	–	–
CC(C)N(C)Cc1ccn2c(-c3ccnc(NCC(C)(C)C)n3)c(-c3ccc(F)cc3)nc2c1	<50	<50	0.6	–	–	–	–
CN(C)Cc1ccn2c(-c3ccnc(NC(C)(C)C)n3)c(-c3ccc(F)cc3)nc2c1	–	–	0.31	–	–	–	–
CC(C)Nc1nccc(-c2c(-c3ccc(F)cc3)nc3cc(CN(C)C)ccn23)n1	>80	>80	0.2	–	–	–	–
CC(C)Nc1nccc(-c2c(-c3ccc(F)cc3)nc3cc(CN4CCC4)ccn23)n1	–	–	0.86	–	–	–	–
C[C@H](Nc1nccc(-c2c(-c3ccc(F)cc3)nc3cc(CN(C)CC(=O)N4CCCC4)ccn23)n1)c1ccccc1	–	–	0.39	–	–	<50	>80
C[C@H](Nc1nccc(-c2c(-c3ccc(F)cc3)nc3cc(CN(C)CCN4CCC4)ccn23)n1)c1ccccc1	–	–	0.1	–	–	<50	>80
C[C@H](Nc1nccc(-c2c(-c3ccc(F)cc3)nc3cc(CN(C)CCCN(C)C)ccn23)n1)c1ccccc1	–	–	0.07	<50	50	–	–
C[C@H](Nc1nccc(-c2c(-c3ccc(F)cc3)nc3cc(CN(C)CC(=O)N4CCC4)ccn23)n1)c1ccccc1	–	–	0.57	–	–	<50	<50
C[C@H](Nc1nccc(-c2c(-c3ccc(F)cc3)nc3cc(CN(C)CCO)ccn23)n1)c1ccccc1	<50	>80	0.11	–	–	–	–
CN(C)Cc1ccn2c(-c3ccnc(NCc4ccccc4)n3)c(-c3ccc(F)cc3)nc2c1	>80	>80	–	–	–	–	–
CC(C)N(C)Cc1ccn2c(-c3ccnc(N[C@@H](C)c4ccccc4)n3)c(-c3ccc(F)cc3)nc2c1	>80	<50	0.11	–	–	–	–
CC(C)N(C)Cc1ccn2c(-c3ccnc(NC(C)(C)C)n3)c(-c3ccc(F)cc3)nc2c1	–	–	2.8	–	–	–	–
CC(C)Nc1nccc(-c2c(-c3ccc(F)cc3)nc3cc(CN(C)C(C)C)ccn23)n1	–	–	1.3	–	–	–	–
C[C@H](Nc1nccc(-c2c(-c3ccc(F)cc3)nc3cc(CN(C)[C@@H](C)C(=O)N(C)C)ccn23)n1)c1ccccc1	50	50	0.26	–	–	–	–
CCN(C)Cc1ccn2c(-c3ccnc(NCC(C)(C)C)n3)c(-c3ccc(F)cc3)nc2c1	<50	>80	0.29	–	–	–	–
CC(C)(C)CNc1nccc(-c2c(-c3ccc(F)cc3)nc3cc(CN4CCC4)ccn23)n1	<0	<0	0.45	–	–	–	–
C[C@H](Nc1nccc(-c2c(-c3ccc(F)cc3)nc3cc(CN(C)C(CO)CO)ccn23)n1)c1ccccc1	–	–	0.15	–	–	<50	>80
CCOC(=O)N1CCN(Cc2ccn3c(-c4ccnc(N[C@@H](C)c5ccccc5)n4)c(-c4ccc(F)cc4)nc3c2)CC1	–	–	5.6	–	–	<50	<50
CCN(C)Cc1ccn2c(-c3ccnc(N[C@@H](C)c4ccccc4)n3)c(-c3ccc(F)cc3)nc2c1	–	–	0.13	–	–	>80	>80
CC(C)NCc1ccn2c(-c3ccnc(N[C@@H](C)c4ccccc4)n3)c(-c3ccc(F)cc3)nc2c1	>80	>80	0.05	–	–	–	–
C[C@H](Nc1nccc(-c2c(-c3ccc(F)cc3)nc3cc(CN(C)CC4CCCO4)ccn23)n1)c1ccccc1 (stereo partly drawn)	<50	>80	0.27	–	–	–	–
CN(C)Cc1ccn2c(-c3ccnc(NCC(C)(C)C)n3)c(-c3ccc(F)cc3)nc2c1	<50	>80	0.28	–	–	–	–
